This is an account of results in ChEMBL document CHEMBL3861942 (Medchemcomm, 2016).

Calls of active or inactive are those of the source. The calls are words filed in the database; no cut-off is given here.

Test [1] is described as follows: Cell cycle arrest in human A549 cells assessed as accumulation at sub G0 phase at 10 uM by propidium iodide staining-based flow cytometric analysis (reference value: 0.866 +/- 0.03%). The test is classed as functional.
The nature of test [2]: Cell cycle arrest in human A549 cells assessed as accumulation at sub G0 phase at 100 uM by propidium iodide staining-based flow cytometric analysis (reference value: 0.866 +/- 0.03%). The test is classed as functional. (In general: Flow cytometry measures light scatter and fluorescence of single cells or particles in a stream.)
Test [3] can be described thus: (§1) Cytotoxicity against human A549 cells assessed as decrease in cell viability after 24 hrs by MTT assay. As to conditions: A549, 24 h. The test is classed as functional, cell-based.
Test [4] deals with A549. Described as §1. The test is classed as functional, cell-based.
Test [5] is described as follows: (§2) Cytotoxicity against human HeLa cells assessed as decrease in cell viability after 24 hrs by MTT assay. The test is classed as functional, cell-based. (In general: Tetrazolium dyes change colour on reduction, which living cells bring about.)
The test system of test [6] is HeLa. Described as §2. In kind it is functional, cell-based.
Test [7] deals with A549. The test can be described thus: Induction of apoptosis in human A549 cells assessed as appearance of crescent or granular shape nucleus on one side of the cell at 10 to 100 uM after 24 hrs by acridine orange/ethidium bromide staining-based fluorescence microscopy. The test is classed as functional.
The nature of test [8]: Cell cycle arrest in human A549 cells assessed as accumulation at S phase at 10 uM by propidium iodide staining-based flow cytometric analysis (reference value: 8.9 +/- 0.6%). In kind it is functional.
Test [9] concerns A549. The test is described as follows: Induction of apoptosis in human A549 cells assessed as appearance of concentrated and asymmetrically localized nucleus at 10 to 100 uM after 24 hrs by acridine orange/ethidium bromide staining-based fluorescence microscopy. In kind it is functional, cell-based.
Test [10] concerns HeLa. The test can be described thus: Induction of apoptosis in human HeLa cells assessed as appearance of concentrated and asymmetrically localized nucleus at 10 to 100 uM after 24 hrs by acridine orange/ethidium bromide staining-based fluorescence microscopy. In kind it is functional, cell-based.
A short description of test [11]: Cell cycle arrest in human A549 cells assessed as accumulation at G1 phase at 10 uM by propidium iodide staining-based flow cytometric analysis (reference value: 66.2 +/- 1.5%). In kind it is functional.
The nature of test [12]: Cell cycle arrest in human A549 cells assessed as accumulation at G2/M phase at 10 uM by propidium iodide staining-based flow cytometric analysis (reference value: 23.5 +/- 1%). In kind it is functional.
Test [13] in a line: Cell cycle arrest in human HeLa cells assessed as accumulation at sub G0 phase at 10 uM by propidium iodide staining-based flow cytometric analysis (reference value: 1.05 +/- 0.2%). The test is classed as functional.
A short description of test [14]: Cell cycle arrest in human HeLa cells assessed as accumulation at G1 phase at 10 uM by propidium iodide staining-based flow cytometric analysis (reference value: 42 +/- 1.8%). In kind it is functional.
The nature of test [15]: Cell cycle arrest in human HeLa cells assessed as accumulation at S phase at 10 uM by propidium iodide staining-based flow cytometric analysis (reference value: 6.7 +/- 0.3%). In kind it is functional.
A short description of test [16]: Cell cycle arrest in human HeLa cells assessed as accumulation at G2/M phase at 10 uM by propidium iodide staining-based flow cytometric analysis (reference value: 47.1 +/- 1.2%). In kind it is functional.
Test [17] is described as follows: Cell cycle arrest in human A549 cells assessed as accumulation at G1 phase at 100 uM by propidium iodide staining-based flow cytometric analysis (reference value: 66.2 +/- 1.5%). The test is classed as functional.
A short description of test [18]: Cell cycle arrest in human A549 cells assessed as accumulation at S phase at 100 uM by propidium iodide staining-based flow cytometric analysis (reference value: 8.9 +/- 0.6%). The test is classed as functional.
A short description of test [19]: Cell cycle arrest in human A549 cells assessed as accumulation at G2/M phase at 100 uM by propidium iodide staining-based flow cytometric analysis (reference value: 23.5 +/- 1%). The test is classed as functional.
The nature of test [20]: Cell cycle arrest in human HeLa cells assessed as accumulation at sub G0 phase at 100 uM by propidium iodide staining-based flow cytometric analysis (reference value: 1.05 +/- 0.2%). The test is classed as functional.
Test [21] in a line: Cell cycle arrest in human HeLa cells assessed as accumulation at G1 phase at 100 uM by propidium iodide staining-based flow cytometric analysis (reference value: 42 +/- 1.8%). The test is classed as functional.
A short description of test [22]: Cell cycle arrest in human HeLa cells assessed as accumulation at S phase at 100 uM by propidium iodide staining-based flow cytometric analysis (reference value: 6.7 +/- 0.3%). The test is classed as functional.
Test [23] in a line: Cell cycle arrest in human HeLa cells assessed as accumulation at G2/M phase at 100 uM by propidium iodide staining-based flow cytometric analysis (reference value: 47.1 +/- 1.2%). In kind it is functional.

Broadly, the IC50 is the point on the concentration scale where inhibition reaches its midpoint. Consider `CC[C@H](/C=C/[C@@H](C)[C@H]1CC[C@H]2[C@@H]3CC=C4C[C@@H](O)CC[C@]4(C)[C@H]3CC[C@]12C)C(C)C` [STIGMASTEROL], for which the Activity in test [1] was 0.85%; in test [2], 0.9%; in the test with A549 [4], “Dose-dependent effect”; in the test with HeLa [6] it was “Dose-dependent effect”; in [8], 9.6%; in [11] it was 62.5%. Further, the Activity in test [12] amounted to 26.5%; in test [13] it was 0.94%; in [14], 39%; in test [15], 6.4%; in test [16] it was 48.7%; in test [17] it was 64.9%. The Activity in test [18] was determined as 9.3%; in test [19], 24.1%; in test [20] it was 1.41%; in test [21], 38%; in test [22], 7.1%; in test [23] it was 48.9%. In addition, the results for the concentration for half-maximal inhibition (IC50) in test [3] and in test [5] were 10.4 µM and 12.2 µM, respectively. Further, the outcome with A549 [7], with A549 [9] and in the test with HeLa [10] was Active.

`O=C(O)/C=C/c1ccccc1` [CINNAMIC ACID]: the Activity was 0.54% in [1]; 0.48% in test [2]; “Dose-dependent effect” in the test on A549 [4]; “Dose-dependent effect” in the test with HeLa [6]; 8.3% in test [8]; 62.7% in test [11]. Further, the Activity in test [12] turned out to be 26.9%; in test [13], 5.8%; in test [14], 55.6%; in test [15], 28.6%; in test [16], 7.1%; in test [17], 65.6%. Besides, the Activity in [18] worked out at 8.1%; in test [19], 24.8%; in [20], 14.4%; in test [21], 73.3%; in test [22], 14%; in test [23], 0.5%. Further, the results for the IC50 in test [3] and in test [5] were 50.2 µM and 24.8 µM, respectively. The outcome in the test on A549 [7], in the test on A549 [9] and in the test with HeLa [10] was Active.

Regarding `CC[C@]1(O)C[C@H]2CN(CCc3c([nH]c4ccccc34)[C@@](C(=O)OC)(c3cc4c(cc3OC)N(C=O)[C@H]3[C@@](O)(C(=O)OC)[C@H](OC(C)=O)[C@]5(CC)C=CCN6CC[C@]43[C@@H]65)C2)C1` [VINCRISTINE], the IC50 in test [3] is 0.8 µM; in [5] it was 4.1 µM.
